Here are results for 59 molecules from patent US8623860B2, “Azetidine derivatives, pharmaceutical compositions and uses thereof” (Boehringer Ingelheim International GmbH, priority 2011, dated 2014).

This assay deals with human ACC2 (Homo sapiens (Human), UniProt O00763). Kind of assay: ACC2 assay, spectrophotometric 384 well assay (NADH-linked, coupled lactate dehydrogenase/pyruvate kinase reaction). In kind it is biochemical. The following applies: hACC2 construct lacking the 128 N-terminal amino acids; 25° C., 340 nm, 15 minutes. The method, then: Spectrophotometric 384 Well Assay
Malonyl CoA formation by acetyl CoA carboxylases is stoichometrically linked to the consumption of ATP. ACC2 activity is measured in a NADH-linked kinetic method measuring ADP generated during the ACC reaction using a coupled lactate dehydrogenase/pyruvate kinase reaction.
For biological testing, a human ACC2 construct which lacks the 128 amino acids at the N-terminus for increased solubility (nt 385-6966 in Genbank entry AJ575592) is cloned. The protein is then expressed in insect cells using a baculoviral expression system. Protein purification is performed by anion exchange.
All compounds are dissolved in dimethyl sulfoxide (DMSO) to a concentration of 10 mM.
Assay reactions are then carried out in 384-well plates, with hACC2 in an appropriate dilution and at final assay concentrations (f.c.) of 100 mM Tris (pH 7.5), 10 mM trisodium citrate, 25 mM KHCC3, 10 mM MgCl2, 0.5 mg/ml BSA, 3.75 mM reduced L-glutathione, 15 U/ml lactate dehydrogenase, 0.5 mM phosphoenolpyruvate, 15 U/ml pyruvate kinase, compounds at different concentrations at final DMSO concentrations of 1%.
The enzymatic reaction is then started by addition of a mixture of NADH, acetyl Coenzyme A (both 200 μM f.c.) and ATP (500 uM f.c.). The decrease of the optical density (slope S) is then determined at 25° C. at a wavelength of 340 nm over 15 minutes in a spectrophotometric reader.
Each assay microtiter plate contains wells with vehicle instead of compound as controls for the non-inhibited enzyme (100% CTL; ‘HIGH’) and wells without acetyl-CoA as controls for non-specific NADH degradation (0% CTL; ‘LOW’).
The slope S is used for calculation of % CTL=(S(compound)−S(‘LOW’))/(S(‘HIGH’)−S(‘LOW’))*100. Compounds will give values between 100% CTL (no inhibition) and 0% CTL (complete inhibition).
For IC50 value determination, the sample slope in the presence of the test compound after subtraction of the low controls (S(compound)−S(‘LOW’)) are used.
An IC50 value is derived from the compound slopes at different dosages after subtraction of the low controls (S(compound)−S(‘LOW’)) by non-linear regression curve fitting (equation y=(A+((B−A)/(1+((C/x)^D))))).
In the following table the activity expressed as IC50 (μM) of compounds according to the invention is presented wherein the IC50 values are determined in the ACC2 assay as described hereinbefore. The term “Ex.” refers to the example numbers according to the following experimental section.

pIC50: −log10 of the molar value.

Chain of human ACC2 (O00763 129-2458): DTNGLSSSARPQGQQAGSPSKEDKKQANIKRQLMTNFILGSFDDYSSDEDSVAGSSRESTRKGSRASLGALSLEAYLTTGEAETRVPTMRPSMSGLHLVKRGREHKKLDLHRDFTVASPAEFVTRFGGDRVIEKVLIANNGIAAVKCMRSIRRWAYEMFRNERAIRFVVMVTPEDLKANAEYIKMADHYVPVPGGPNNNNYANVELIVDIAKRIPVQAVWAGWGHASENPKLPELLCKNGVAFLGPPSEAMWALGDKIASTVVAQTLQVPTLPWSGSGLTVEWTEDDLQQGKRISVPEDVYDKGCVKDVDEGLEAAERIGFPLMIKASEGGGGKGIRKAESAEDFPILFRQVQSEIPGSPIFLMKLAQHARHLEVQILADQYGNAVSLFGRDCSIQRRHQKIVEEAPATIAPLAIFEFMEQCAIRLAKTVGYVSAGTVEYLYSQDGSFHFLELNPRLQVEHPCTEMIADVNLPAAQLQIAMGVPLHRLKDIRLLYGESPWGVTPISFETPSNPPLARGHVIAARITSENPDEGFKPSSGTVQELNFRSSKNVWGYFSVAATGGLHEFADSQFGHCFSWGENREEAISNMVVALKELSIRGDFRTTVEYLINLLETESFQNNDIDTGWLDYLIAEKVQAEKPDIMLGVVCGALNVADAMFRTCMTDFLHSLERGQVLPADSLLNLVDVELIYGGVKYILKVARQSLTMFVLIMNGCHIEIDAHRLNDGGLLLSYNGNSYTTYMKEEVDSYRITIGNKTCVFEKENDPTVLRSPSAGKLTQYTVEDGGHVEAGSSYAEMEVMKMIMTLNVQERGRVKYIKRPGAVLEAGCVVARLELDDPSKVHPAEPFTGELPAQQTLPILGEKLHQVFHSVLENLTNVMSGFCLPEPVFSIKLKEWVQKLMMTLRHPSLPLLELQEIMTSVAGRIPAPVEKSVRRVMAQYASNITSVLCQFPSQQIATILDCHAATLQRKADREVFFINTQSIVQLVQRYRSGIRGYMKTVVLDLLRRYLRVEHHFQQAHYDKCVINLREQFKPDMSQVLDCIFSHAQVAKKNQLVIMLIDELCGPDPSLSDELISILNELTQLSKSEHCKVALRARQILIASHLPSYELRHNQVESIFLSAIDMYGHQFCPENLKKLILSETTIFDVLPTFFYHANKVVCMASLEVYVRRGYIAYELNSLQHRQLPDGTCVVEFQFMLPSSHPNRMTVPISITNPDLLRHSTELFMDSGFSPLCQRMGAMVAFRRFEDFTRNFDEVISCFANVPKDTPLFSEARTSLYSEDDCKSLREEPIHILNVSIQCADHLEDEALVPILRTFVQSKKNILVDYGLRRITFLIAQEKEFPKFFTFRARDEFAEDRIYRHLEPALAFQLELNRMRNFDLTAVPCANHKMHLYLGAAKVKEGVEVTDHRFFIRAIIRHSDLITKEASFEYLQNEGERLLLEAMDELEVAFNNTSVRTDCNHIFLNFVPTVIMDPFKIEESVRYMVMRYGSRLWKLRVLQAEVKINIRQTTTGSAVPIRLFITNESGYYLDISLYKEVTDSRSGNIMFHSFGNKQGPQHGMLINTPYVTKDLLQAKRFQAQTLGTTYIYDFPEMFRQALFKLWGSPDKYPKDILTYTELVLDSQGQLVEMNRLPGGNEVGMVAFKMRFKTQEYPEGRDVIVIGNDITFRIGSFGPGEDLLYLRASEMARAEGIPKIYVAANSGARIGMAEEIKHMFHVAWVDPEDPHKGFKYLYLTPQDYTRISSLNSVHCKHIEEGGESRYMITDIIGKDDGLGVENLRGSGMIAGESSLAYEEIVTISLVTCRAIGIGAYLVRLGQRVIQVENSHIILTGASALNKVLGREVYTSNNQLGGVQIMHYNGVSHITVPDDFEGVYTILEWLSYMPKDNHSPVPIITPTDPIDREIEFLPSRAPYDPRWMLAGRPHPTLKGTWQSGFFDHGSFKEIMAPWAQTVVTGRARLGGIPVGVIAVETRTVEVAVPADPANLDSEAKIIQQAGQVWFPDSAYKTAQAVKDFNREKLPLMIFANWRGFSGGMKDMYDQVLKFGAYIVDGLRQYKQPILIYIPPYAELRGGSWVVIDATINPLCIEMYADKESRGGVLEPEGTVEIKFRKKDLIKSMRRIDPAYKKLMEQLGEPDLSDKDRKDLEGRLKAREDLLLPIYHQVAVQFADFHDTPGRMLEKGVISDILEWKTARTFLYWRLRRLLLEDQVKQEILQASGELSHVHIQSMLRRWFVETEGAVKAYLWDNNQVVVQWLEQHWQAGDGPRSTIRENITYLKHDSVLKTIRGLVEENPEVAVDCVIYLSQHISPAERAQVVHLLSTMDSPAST

Regarding `CC(=O)N[C@@H](C)c1ccc(C2CN(c3ncc(C4CC4)cn3)C2)cc1` [Example 2.12], the pIC50 is 6.38.

For `COCC(=O)NC(C)Cc1ccc(C2CN(c3ccc(OCC4CC4)cc3)C2)cc1` (centres unmarked) [Example 3.16], the negative logarithm of the IC50 (pIC50) is 5.52.

The molecule `C[C@H](NC(=O)C1CCCCO1)c1ccc(C2CN(c3ccc(OCC4CC4)cc3)C2)cc1` (some centres unmarked) [Example 3.27] had a negative-log IC50 (pIC50) of 5.54.

`CC(=O)NC(C)Cc1ccc(C2CN(c3ccc(OC4CCC4)cc3)C2)cc1` (centres unmarked) [Example 1.02] showed a negative-log IC50 (pIC50) of 6.59.

`CC(=O)Nc1nc(C(=O)N[C@@H](C)c2ccc(C3CN(c4ccc(OCC5CC5)cc4)C3)cc2)co1` [Example 3.54] had a negative logarithm of the IC50 (pIC50) of 5.63.

Take `CCOc1ccc(N2CC(c3ccc(CCC(C)NC(C)=O)cc3)C2)cc1` (centres unmarked) [Example 1.16]: the pIC50 was 6.39.

Molecule `CC(=O)NC(C)CCc1ccc(C2CN(c3cccc(C(F)(F)F)n3)C2)cc1` (centres unmarked) [Example 2.06] had a pIC50 of 5.85.

Take `CC(=O)N[C@@H](C)c1ccc(C2CN(c3ncnc(OCC4CC4(F)F)c3F)C2)cc1` (some centres unmarked) [Example 5.6]: the pIC50 is 6.27.

Molecule `COC1CC(C(=O)N[C@@H](C)c2ccc(C3CN(c4ccc(OCC5CC5)cc4)C3)cc2)C1` (some centres unmarked) [Example 3.23] gave a pIC50 of 5.58.

Take `CCCOc1ccc(N2CC(c3ccc(CC(C)NC(C)=O)cc3)C2)cc1` (centres unmarked) [Example 1.01, N-(1-(4-(1-(4-Propoxyphenyl)azetidin-3-yl)phenyl)propan-2-yl)acetamide]: the pIC50 was 6.29.

For the molecule `CC(=O)N[C@@H](C)c1ccc(C2CN(c3ncc4nc(-c5ccccc5)oc4n3)C2)cc1` [Example 2.07], the pIC50 was 6.47.

`Cc1nc(C(=O)N[C@@H](C)c2ccc(C3CN(c4ccc(OCC5CC5)cc4)C3)cc2)c(C)s1` [Example 3.38] had a pIC50 of 5.85.

In turn, `C[C@H](NC(=O)C1CC1)c1ccc(C2CN(c3ccc4c(c3)OCCO4)C2)cc1` [Example 3.64] showed a negative logarithm of the IC50 (pIC50) of 5.61.

In turn, `C[C@H](NC(=O)C(C)(C)O)c1ccc(C2CN(c3ccc(OCC4CC4)cc3)C2)cc1` [Example 3.75] had a negative-log IC50 (pIC50) of 5.51.

As to `C[C@H](NC(=O)Cc1cccnc1)c1ccc(C2CN(c3ccc(OCC4CC4)cc3)C2)cc1` [Example 3.24], the pIC50 was 5.78.

In the case of `CC(=O)N[C@@H](C)c1ccc(C2CN(c3ccc(OCC4CC4)cc3)C2)cc1` [Example 1.23], the negative logarithm of the IC50 (pIC50) is 6.42.

`CCOC(=O)C1(F)CC1C(=O)NC(C)Cc1ccc(C2CN(c3ccc(OCC4CC4)cc3)C2)cc1` (centres unmarked) [Example 3.79]: the pIC50 is 5.64.

`C[C@H](NC(=O)c1cnco1)c1ccc(C2CN(c3ccc(OCC4CC4)cc3)C2)cc1` [Example 3.52] gave a negative-log IC50 (pIC50) of 6.15.

`C[C@H](NC(=O)c1cn[nH]c1)c1ccc(C2CN(c3ccc(OCC4CC4)cc3)C2)cc1` [Example 3.02] had a pIC50 of 5.97.

Molecule `CC(Cc1ccc(C2CN(c3ccc(OCC4CC4)cc3)C2)cc1)NC(=O)C1(C)CC1` (centres unmarked) [Example 3.63] had a negative logarithm of the IC50 (pIC50) of 5.91.

Molecule `CC(Cc1ccc(C2CN(c3ccc(OCC4CC4)cc3)C2)cc1)NC(=O)C(F)F` (centres unmarked) [Example 3.12] gave a pIC50 of 5.56.

In turn, `CC(=O)NC(C)CCc1ccc(C2CN(c3ccc4c(c3)OCCO4)C2)cc1` (centres unmarked) [Example 1.14] had a pIC50 of 6.17.

The molecule `CC(C(=O)N[C@@H](C)c1ccc(C2CN(c3ccc(OCC4CC4)cc3)C2)cc1)C(F)(F)F` (some centres unmarked) [Example 3.47] gave a negative logarithm of the IC50 (pIC50) of 5.57.

`Cc1nocc1C(=O)N[C@@H](C)c1ccc(C2CN(c3ccc4c(c3)OCCO4)C2)cc1` [Example 3.65] had a pIC50 of 5.93.

Molecule `CC(=O)NC(C)Cc1ccc(C2CN(c3ccc(C(C)(C)C)cc3)C2)cc1` (centres unmarked) [Example 1.09] showed a pIC50 of 5.56.

Molecule `Cc1nocc1C(=O)N[C@@H](C)c1ccc(C2CN(c3ccc(OCC4CC4)cc3)C2)cc1` [Example 3.87] showed a negative logarithm of the IC50 (pIC50) of 6.33.

In turn, `CC(=O)Nc1cc(C(=O)N[C@@H](C)c2ccc(C3CN(c4ccc(OCC5CC5)cc4)C3)cc2)ccn1` [Example 3.59] had a pIC50 of 6.11.

For `CC(=O)NC(C)CCc1ccc(C2CN(c3ccc(OC4CC4)cc3)C2)cc1` (centres unmarked) [Example 1.15], the pIC50 was 6.32.

Regarding `CC(C)C(=O)N[C@@H](C)c1ccc(C2CN(c3ccc(OCC4CC4)cc3)C2)cc1` [Example 3.32], the pIC50 is 5.75.

Molecule `CC(F)C(=O)N[C@@H](C)c1ccc(C2CN(c3ccc4c(c3)OCCO4)C2)cc1` (some centres unmarked) [Example 3.61] showed a negative-log IC50 (pIC50) of 5.60.

In turn, `CC(=O)N[C@@H](C)c1ccc(C2CN(c3cccc(C(F)(F)F)n3)C2)cc1` [Example 2.10] gave a pIC50 of 6.33.

`CCC(=O)NC(C)Cc1ccc(C2CN(c3ccc4c(c3)OCCO4)C2)cc1` (centres unmarked) [Example 3.83] had a negative-log IC50 (pIC50) of 5.50.

As for `Cc1ccc(C(=O)N[C@@H](C)c2ccc(C3CN(c4ccc(OCC5CC5)cc4)C3)cc2)o1` [Example 3.43], the pIC50 is 5.59.

`CC(=O)N[C@@H](C)c1ccc(C2CN(c3ccnc(OCC(F)F)c3)C2)cc1` [Example 5.2] gave a negative logarithm of the IC50 (pIC50) of 5.91.

`CC(=O)Nc1cncc(C(=O)NC(C)Cc2ccc(C3CN(c4ccc(OCC5CC5)cc4)C3)cc2)c1` (centres unmarked) [Example 3.05]: the negative logarithm of the IC50 (pIC50) was 5.76.

`CC(=O)NC(C)CCc1ccc(C2CN(c3ccc(OCC4CC4)cc3)C2)cc1` (centres unmarked) [Example 1.17] had a pIC50 of 6.72.

`CC(Cc1ccc(C2CN(c3ccc4c(c3)OCCO4)C2)cc1)NC(=O)C(F)F` (centres unmarked) [Example 3.84]: the pIC50 is 5.44.

`CC(=O)N[C@@H](C)c1ccc(C2CN(c3nnc(-c4ccccc4)s3)C2)cc1` [Example 2.11]: the negative-log IC50 (pIC50) was 5.11.

In the case of `C[C@H](NC(=O)CO)c1ccc(C2CN(c3ccc(OCC4CC4)cc3)C2)cc1` [Example 3.82], the negative-log IC50 (pIC50) is 5.79.

`CC(=O)NC(C)c1ccc(C2CN(c3ccc4c(c3)OCCO4)C2)cc1` (centres unmarked) [Example 1.20]: the negative-log IC50 (pIC50) was 6.31.

Molecule `Cc1oncc1C(=O)NC(C)Cc1ccc(C2CN(c3ccc(OCC4CC4)cc3)C2)cc1` (centres unmarked) [Example 3.74] showed a negative logarithm of the IC50 (pIC50) of 6.02.

Regarding `Cc1oncc1C(=O)NC(C)Cc1ccc(C2CN(c3ccc4c(c3)OCCO4)C2)cc1` (centres unmarked) [Example 3.76], the negative logarithm of the IC50 (pIC50) is 5.55.

As for `CCOc1cccc(N2CC(c3ccc([C@H](C)NC(C)=O)cc3)C2)c1` [Example 1.28], the pIC50 is 6.17.

On to `CC(=O)NC(C)Cc1ccc(C2CN(c3ncc(OCC4CC4(F)F)cc3F)C2)cc1` (centres unmarked) [Example 1.30], for which the negative logarithm of the IC50 (pIC50) was 6.13.

The molecule `C[C@H](NC(=O)C1CC=CC1)c1ccc(C2CN(c3ccc(OCC4CC4)cc3)C2)cc1` [Example 3.03] showed a negative logarithm of the IC50 (pIC50) of 6.42.

For `C[C@H](NC(=O)c1cncs1)c1ccc(C2CN(c3ccc(OCC4CC4)cc3)C2)cc1` [Example 3.86], the pIC50 was 6.35.

Molecule `CC(=O)N[C@@H](C)c1ccc(C2CN(c3ncnc(OCC4CC4)c3F)C2)cc1` [Example 5.7] had a pIC50 of 6.40.

`CC(Cc1ccc(C2CN(c3ccc(OCC4CC4)cc3)C2)cc1)NC(=O)C1CCC1` (centres unmarked) [Example 3.62] had a pIC50 of 5.54.

For the molecule `C[C@H](NC(=O)C1CCOC1)c1ccc(C2CN(c3ccc(OCC4CC4)cc3)C2)cc1` (some centres unmarked) [Example 3.20], the pIC50 was 5.99.

As to `Cc1nocc1C(=O)NC(C)Cc1ccc(C2CN(c3ccc(OCC4CC4)cc3)C2)cc1` (centres unmarked) [Example 3.17], the negative-log IC50 (pIC50) is 5.55.

Molecule `CC(Cc1ccc(C2CN(c3ccc(OCC4CC4)cc3)C2)cc1)NC(=O)Cc1cc[nH]c1` (centres unmarked) [Example 3.13] showed a pIC50 of 5.53.

`C[C@H](NC(=O)c1cnn(C)c1)c1ccc(C2CN(c3ccc4c(c3)OCCO4)C2)cc1` [Example 3.71] gave a pIC50 of 5.77.

In turn, `CC(=O)N[C@@H](C)c1ccc(C2CN(c3ccnc(OCC4CC4)c3)C2)cc1` [Example 5.3] gave a negative logarithm of the IC50 (pIC50) of 5.80.

As for `C[C@H](NC(=O)C(C)(C)F)c1ccc(C2CN(c3ccc(OCC4CC4)cc3)C2)cc1` [Example 3.46], the pIC50 is 5.94.

`C[C@H](NC(=O)C1(C#N)CC1)c1ccc(C2CN(c3ccc(OCC4CC4)cc3)C2)cc1` [Example 3.35] showed a pIC50 of 5.84.

`CC(=O)Nc1cccc(C(=O)N[C@@H](C)c2ccc(C3CN(c4ccc(OCC5CC5)cc4)C3)cc2)c1` [Example 3.36] had a pIC50 of 5.66.

As for `CC(=O)N[C@@H](C)c1ccc(C2CN(c3nc(N(C)C)ncc3F)C2)cc1` [Example 4.3], the negative logarithm of the IC50 (pIC50) is 5.82.

Regarding `CC(=O)NCCCC(=O)N[C@@H](C)c1ccc(C2CN(c3ccc(OCC4CC4)cc3)C2)cc1` [Example 3.41], the negative logarithm of the IC50 (pIC50) was 5.68.

As for `C[C@H](NC(=O)CC#N)c1ccc(C2CN(c3ccc(OCC4CC4)cc3)C2)cc1` [Example 3.78], the pIC50 is 5.91.
